Measurements published in patent US20210084902A1, “FUNGICIDAL MIXTURE COMPRISING SUBSTITUTED 3-PHENYL-5-(TRIFLUOROMETHYL)-1,2,4-OXADIAZOLES” (BASF SE, priority 2017, published 2021).

Columns and labels:
Assay type in all cases: cell-based
[1] = tested on: Septoria tritici; assay: Fungicidal activity against Septoria tritici, micro titer plate (MTP) test; conditions: Zymoseptoria tritici, 168 h; Table V.4; component B alone, 0.000063 ppm; read-out: Observed efficacy
[2] = tested on: Leptosphaeria nodorum; assay: Fungicidal activity against Leptosphaeria nodorum, microtiter plate (MTP) test; conditions: Parastagonospora nodorum, 168 h, read-out: Observed efficacy
[3] = tested on: Pyricularia oryzae; assay: microbe, parasite or virus in culture; conditions: Pyricularia oryzae, 168 h, read-out: Observed efficacy
[4] = tested on: Botrytis cinerea; assay: Fungicidal activity against Botrytis cinerea, micro titer plate (MTP) test; conditions: Botrytis cinerea, 168 h, component B alone, read-out: Observed efficacy
[5] = tested on: Colletotrichum orbiculare; assay: Fungicidal activity against Colletotrichum orbiculare in the microtiterplate test; conditions: Colletotrichum orbiculare, read-out: Observed efficacy

Compound: COC(=O)N(OC)c1ccccc1COc1ccn(-c2ccc(Cl)cc2)n1 [Pyraclostrobin, pyraclostrobin]
- inhibition of growth at 6.3e-05 ppm [1]: 21%
- inhibition of growth at […] ([2]; 0.00025 ppm): 22%
- inhibition of growth at 0.004 ppm ([2]; 0.004 ppm): 59%
- inhibition of growth at 0.001 ppm [3]: 46%
- inhibition of growth at 0.004 ppm ([4]; 0.004 ppm): 0%
- inhibition of growth at […] ([4]; 0.016 ppm): 14%
- inhibition of growth at 0.001 ppm ([5]; 0.001 ppm): 32%
- inhibition of growth at […] ([5]; 0.016 ppm): 60%
